US6384083B1, “USE OF ADAMANTANE AMINES OR STRUCTURALLY SIMILAR COMPOUNDS FOR COMBATING BORNA DISEASE VIRUS AND FOR THE PREVENTION AND TREATMENT OF AFFECTIVE DISEASES AND OTHER DISORDERS ASSOCIATED WITH BDV INFECTIONS IN HUMANS AND ANIMALS” (priority 1996, dated 2002)
Where a name gives a salt, the structure may show the parent alone.

Tests used:
influenza A strains = settings: cited from earlier work
influenza B strains = settings: cited from earlier work
[1] = tested on: human Borna disease virus strain BDV-Hu-H1; experiment: Inhibition of BDV infection of young rabbit brain cells after one-hour pre-treatment; format: cell-based, Borna disease virus (human strain) in rabbit brain cells; settings: one-hour pre-treatment before infection, 100±10 ffu/mL BDV-Hu-H1, read-out: concentration that inhibits the infection of rabbit brain cells with human BDV to the extent of 50%
Protocol: (§1) Young rabbit brain cells were treated with amantadine sulfate and, in a comparison experiment, with meso-inositol. After this treatment, both samples were treated for 1 hour with a human Borna disease virus strain (100±10 ffu/mL with BDV-Hu-H1 (regarding this strain, refer also to L. Bode, et al., Mol. Psychiatry 1996, 1(3), 200-212)).
(§2) The highest in vitro dose, which permits normal, unimpaired cell growth, is 1.2 μg/mL, relative to the cell system.

rabbit brain cells = experiment: Cell growth tolerance in the rabbit brain cell system; format: cell-based; settings: relative to the cell system
Protocol: as §1, §2

[2] = tested on: human oligodendroglia cells (OL cells); experiment: Cell growth of OL cells under amantadine sulfate; settings: 1.2 μg/mL, whole period observed
Protocol: (§3) On the other side, freshly infected OL cells were treated with the same drug dose for 24 hours and then for a further 6 days after the infection.

BDV-Hu-H1 = experiment: Inhibition of BDV replication in human oligodendroglia (OL) cells; settings: already infected OL cells, 1.2 μg/mL, 6 days
Protocol: as §3

[3] = tested on: activated BDV infection / depression; experiment: Treatment of a BDV-infected patient with bipolar disease (severe depressive episode)
[4] = cited from earlier work

NC12CC3CC(CC(C3)C1)C2 [amantadine hydrochloride]
push back of virus production (influenza A strains): by a power of 10
sensitivity of the virus (influenza B strains): not sensitive

NC12CC3CC(CC(C3)C1)C2 [amantadine sulfate]
IC50 [1]: 0.019 µg/mL
highest in vitro dose which permits normal, unimpaired cell growth (rabbit brain cells): 1.2 µg/mL
effect on cell growth [2]: practically not affected
reduction of the number of infectious viruses (factor) (BDV-Hu-H1): more than 10,000
Borna virus activity (protein expression in the blood leucocytes) ([3]; after the 11th day of treatment and also 5 months later): could no longer be detected
course of depression under treatment ([3]; from the 8th day to the 11th day, 50 to 200 mg daily): improved dramatically
day of treatment after which discharge from hospital was possible ([3]; patient): 15 days
undesirable side effects ([3]; patient, until now): no undesirable side effects

NC12CC3CC(CC(C3)C1)C2 [amantadine, 1-adamantane amine]
half-lifetime ([4]; in vivo): approximately 15 hours
absorption after oral administration ([4]; oral): absorbed almost completely
depression-free time without hypomanic rebound effect ([3]; patient under therapy): 5 months

CC(N)C12CC3CC(CC(C3)C1)C2 (centres unmarked) [rimantadine, 1-adamantyl-(1-amino) ethane]
excretion / metabolism ([4]; in vivo): metabolized in the liver
